Residues, ends and D or L forms follow the SMILES beside them. *: point of attachment. Biotin = O=C1N[C@H]2[C@H](CS[C@H]2CCCCC(=O)*)N1
Molecular target: T1, SITAC-18 d1 (Homo sapiens, UniProt Q9H190)
T1 construct: made in house; host or cells: E. coli (DH5alpha, BL21 or JM109)
T1 sequence (Q9H190 104-195): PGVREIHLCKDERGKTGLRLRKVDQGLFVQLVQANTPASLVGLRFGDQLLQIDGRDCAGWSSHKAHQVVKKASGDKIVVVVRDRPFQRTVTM
Assay: G3 assay titration, GST-PDZ fusion / biotinylated peptide
Assay type: binding
Protocol: The G3 assay is identical to the G0 assay with the following exceptions. The peptides are typically present at 0.1 μM rather than 20 μM. The peptides are also pre-incubated with the HRP-streptavidin prior to adding to the assay plate. In the G0 assay, free peptide is incubated with the PDZ proteins prior to the addition of the HRP-streptavidin. Thus, for the G0 assay one can lose signal if the bound peptide dissociates from the PDZ protein prior to the addition of the HRP-streptavidin. In the G3 modified assay the HRP-streptavidin/peptide complex is added to the plate in one step, thus increasing the likelihood that all the bound peptide will be bound to HRP-streptavidin. The G3 modified assay increases the chance of observing weak interactions.
This example describes assays to identify binding between TRPM7 and PDZ domains. GST-PDZ fusions are produced that each contain an entire PDZ domain (or multiple PDZ domains), the collection encompassing approximately 90% of all PDZ domains identified in the human genome. (See Table 5 and Section V (PDZ Proteins and PL Protein Interactions Disclosure). Biotinylated peptide corresponding to 11 residues of Tat coupled to the C-terminal 9 amino acids of TRPM7 ([…]; SEQ ID NO:258) is synthesized and purified by HPLC.
• Nunc MaxiSorp 96 well Immuno-plate, Nunc • PBS pH 7.4 (phosphate buffered saline, 8 g NaCl, 0.29 g KCl, 1.44 g Na2HPO4, 0.24 g KH2PO4, add H2O to 1 liter and pH 7.4; 0.2 μm filter) • Assay Buffer: 2% BSA in PBS (20 g of bovine serum albumin per liter PBS, fraction V, ICN Biomedicals, cat#IC15142983 • Goat anti-GST polyclonal Ab, stock 5 mg/ml, stored at 4° C., Amersham Pharmacia cat#27-4577-01 • Dilute 1:1000 in PBS, final concentration 5 μg/ml. • HRP-Streptavidin, 2.5 mg/2 ml stock stored at 4° C., Zymed cat#43-4323, dilute 1:2000 into Assay buffer, final concentration of […] • Wash Buffer, PBS • Biotinylated peptides (HPLC purified, stock solution stored in −20° C. freezer) • GST-PRISM proteins (stock stored at −80° C., after 1st thaw store in −10° C. freezer) • TMB (3,3′,5,5′, teramethylbensidine), tablets, Sigma cat.#T5525 • Per plate, dissolve 1 tablet in 1 ml DMSO, add 9 ml Citrate/Phosphate buffer pH 5.4 and 2 μL H2O2 • 0.1 M H2SO4, Sigma cat.#S1526 • 12-w multichannel pipettor & tips • 50 ml reagent reservoirs, Costar#4870 • 50, 15 ml polypropylene conical tubes • Costar Transtar 96 Costar #7605 • Transtar 96 Cartridge Costar #7610 • Molecular Devices microplate reader (450 & 650 nm filters) with SoftMax Pro software *When using reagents stored at or 4° C. or −20° C., remove & keep on ice
• 1. Coat plate with 100 μl of 5 μg/ml anti-GST, overnight at 4° C. • 2. Dump contents of plate & out tap dry on paper towels • 3. Block with 200 μl Assay Buffer for 2 hrs at room temperature • 4. Prepare proteins at 5 μg/ml in Assay Buffer • 5. Wash 3× with cold PBS (4° C.), avoiding letting the plates dry out • 6. Add proteins at 50 μl per well, incubate 1 to 2 hrs at 4° C. • 7. Prepare peptides to desired concentration in Assay Buffer • 8. Wash 3× with cold PBS (4° C.), avoiding letting the plates dry out • 9. Add HRP-Streptavidin/peptide complex [prepared by incubating for 20 minutes at room temperature HRP-Streptavidin (1:2000) with the desired biotin-peptide concentration for 20 minutes at room temperature] at 50 μl per well on ice • 10. Place at room temperature for exactly 30 minutes • 11. Promptly wash 5× with PBS at room temperature • 12. Add 100 μl/well TMB substrate (write time on plate) • 13. Incubate in dark at room temperature for a maximum of 30 minutes • 14. Read plate at 25 minutes (650 nm), optional • 15. Stop reaction with 100 μl of 0.18 M H2SO4, 30 minutes after adding TMB • Take last reading at 450 nm soon after stopping reaction
The G3 assay was performed on a subset of the PDZ domains as in Example II except that the concentration of peptide was 0.002 μM, […], 0.1 μM, 0.2 μM, 1 μM, and 2 μM. Data was fitted to the equation: […]

CSCC[C@H](NC(=O)[C@H](CC(C)C)NC(=O)[C@H](CCCNC(=N)N)NC(=O)[C@@H](NC(=O)[C@H](CO)NC(=O)[C@H](CC(N)=O)NC(=O)[C@@H](NC(=O)[C@H](CO)NC(=O)[C@H](CCCNC(=N)N)NC(=O)[C@H](CCCNC(=N)N)NC(=O)[C@H](CCCNC(=N)N)NC(=O)[C@H](CCC(N)=O)NC(=O)[C@H](CCCNC(=N)N)NC(=O)[C@H](CCCNC(=N)N)NC(=O)[C@H](CCCCN)NC(=O)[C@H](CCCCN)NC(=O)[C@H](CCCNC(=N)N)NC(=O)CNC(=O)[C@H](Cc1ccc(O)cc1)NC(=O)CCCC[C@@H]1SC[C@@H]2NC(=O)N[C@@H]21)[C@@H](C)O)C(C)C)C(=O)N[C@@H](CC(C)C)C(=O)O [Tat-TRPM7 peptide] (Biotin-YGRKKRRQRRRSTNSVRLML-OH)
EC50: < 1000 nM
